Data taken from PMC9209747 (Neuro-oncology Advances, 2022).
“And” between values parts separate entries of the source, which are not always exact repeats. Identical values can stand only once.

What was measured:
[1] = cited from earlier work
[2] = tested on: γH2AX in tumor tissue; set-up: method as in our preclinical studies; settings: treated mice compared to control animals; ref our preclinical studies; cited from earlier work
[3] = tested on: adult glioblastoma multiforme (GBM); set-up: method as in ref 3 (Mir et al.); settings: combining radiation therapy with adavosertib; ref 3 (Mir et al.); cited from earlier work
[4] = tested on: γH2AX in peripheral blood mononuclear cells (PBMCs); assay: γH2AX in peripheral blood cells by flow cytometry (pharmacodynamics); assay type: in vivo, human; settings: for γ-H2AX positive cells in peripheral blood cells, Post-Day1 dosing / γ-H2AX positive cells in peripheral blood cells, Post-Day5 dosing / γ-H2AX positive cells in peripheral blood cells, Post-Day8 dosing: individual patients
Method: The expression of γH2AX in PBMCs was measured pre and posttreatment using flow cytometry. Effort was made to obtain two baseline (pretreatment) samples on two different days, with the first occurring within 7 days prior to CRT. Serial samples were then collected on days 1 and 5 of treatment, 6-8 hours after each dose, and day 8 prior to the day's dose. Blood samples of 1 mL were drawn into heparinized containing tubes and transferred to a Smart Tube (Thermo Fisher) followed by a 30 min incubation period in a 37°C water bath for activation per manufacture's guidelines. Samples were stored at -80°C until shipment. The frozen Smart Tubes were thawed in a 10-12°C water bath for 20 min before the red blood cells were lysed and intact cells were fixed in 90% methanol and stored at -20°C overnight. Briefly, the methanol fixed cells were washed and blocked in staining buffer (1X PBS containing 0.5 mg/ml BSA) containing TruStain FcX^TM (BioLegend) for 10 min at room temperature. Next, cells were incubated with FITC-conjugated anti-γH2AX […] antibody (BioLegend) for 1 h, washed and DNA stained with propidium iodide (2 μg/ml) before data colection by flow cytometry on CytoflexS. Percent positive γH2AX blood cells was determined by FlowJo software and described as fold-change over baseline for each patient.[16]

[5] = tested on: pediatric glioma cell lines including a DIPG derived cell line; set-up: method as in PMID 24305702; settings: effect enhanced by radiation; cited from earlier work
[6] = 50 mg/m², alternating with weeks of QOD dosing

## C=CCn1c(=O)c2cnc(Nc3ccc(N4CCN(C)CC4)cc3)nc2n1-c1cccc(C(C)(C)O)n1 [adavosertib]
[1]; adult patients
  Elimination half-life (t1/2): 9 to 11 h
  Tmax: 4 h
[1]; fasting adults, ref a recent report of a food-effect study
  Mean oral clearance: 40.85 L/h
[2]
  γH2AX expression in tumor tissue: increased expression of γH2AX
[3]
  Survival in orthotopic GBM models: significantly improved survival
[4]; 50 mg/m², During Weeks 1-6
  γ-H2AX positive cells in peripheral blood cells, Post-Day1 dosing: 1.42 and 1.29
  γ-H2AX positive cells in peripheral blood cells, Post-Day5 dosing: 1.42 and 0.32
  γ-H2AX positive cells in peripheral blood cells, Post-Day8 dosing: 0.68 and 0.11
[4]; 50 mg/m², alternating weeks
  γ-H2AX positive cells in peripheral blood cells, Post-Day1 dosing: 2.74
  γ-H2AX positive cells in peripheral blood cells, Post-Day5 dosing: 2.03
  γ-H2AX positive cells in peripheral blood cells, Post-Day8 dosing: 7.24
[4]; [6]
  γ-H2AX positive cells in peripheral blood cells, Post-Day1 dosing: 3.17 and 1.03 and 1.31 and 0.12
  γ-H2AX positive cells in peripheral blood cells, Post-Day5 dosing: 7.63 and 0.70 and 4.90 and 0.15
  γ-H2AX positive cells in peripheral blood cells, Post-Day8 dosing: 1.08 and 2.90 and 2.30 and 0.19
[4]; 95 mg/m², During Weeks 1-6
  γ-H2AX positive cells in peripheral blood cells, Post-Day1 dosing: 2.48 and 3.42 and 1.89
  γ-H2AX positive cells in peripheral blood cells, Post-Day5 dosing: 6.31 and 0.55 and 1.63
  γ-H2AX positive cells in peripheral blood cells, Post-Day8 dosing: 4.92 and 0.04 and 2.75
[4]; 130 mg/m², During Weeks 1-6
  γ-H2AX positive cells in peripheral blood cells, Post-Day1 dosing: 0.26 and 0.38 and 0.61 and 0.16 and 10.60 and 0.31
  γ-H2AX positive cells in peripheral blood cells, Post-Day5 dosing: 0.41 and 0.33 and 2.47 and 0.43 and 3.75 and 0.06
  γ-H2AX positive cells in peripheral blood cells, Post-Day8 dosing: 0.48 and 1.08 and 16.50 and 0.50 and 1.49 and 0.00
[4]; 160 mg/m², During Weeks 1-6
  γ-H2AX positive cells in peripheral blood cells, Post-Day1 dosing: 0.96 and 7.75 and 0.95 and 2.25 and 6.62
  γ-H2AX positive cells in peripheral blood cells, Post-Day5 dosing: 5.27 and 0.13 and 1.86 and 0.31 and 5.28
  γ-H2AX positive cells in peripheral blood cells, Post-Day8 dosing: 5.59 and 5.55 and 0.95 and 3.37 and 3.25
[4]; 200 mg/m², During Weeks 1-6
  γ-H2AX positive cells in peripheral blood cells, Post-Day1 dosing: 0.88 and 2.45 and 17.90 and 0.00
  γ-H2AX positive cells in peripheral blood cells, Post-Day5 dosing: 3.75 and 3.61 and 16.90 and 0.01 and 6.11
  γ-H2AX positive cells in peripheral blood cells, Post-Day8 dosing: 0.40 and 2.17 and 14.70 and 0.01 and 5.81
[4]; any dose level, with CRT
  Change of γH2AX in PBMCs compared to baseline: no significant changes compared to baseline
[5]
  Anti-proliferative effect in clonogenic survival assays: dose-dependent anti-proliferative effects
